Data on two molecules can be found in ChEMBL document CHEMBL1240301, “Assignment of protein function in the postgenomic era” (Nat Chem Biol, 2005).

The target of experiment [1] is Cyclin-dependent kinase 2 (Homo sapiens, UniProt P24941, F80G). The experiment is described as follows: Inhibition of CDK2 F80G mutant.
A short description of experiment [2]: Inhibition of wild type CAMK2.
Experiment [3] can be described thus: Inhibition of v-Src kinase I338G mutant.
In experiment [4] the target is Cyclin-dependent kinase 2 (Homo sapiens, UniProt P24941). Briefly: Inhibition of wild type CDK2.
Experiment [5] in a line: Inhibition of wild-type v-Src.
Experiment [6] can be described thus: Inhibition of c-Fyn T339G mutant.
Experiment [7] deals with Calcium/calmodulin-dependent protein kinase type II subunit alpha (Homo sapiens, UniProt Q9UQM7, F89G). Briefly: Inhibition of CAMK2 F89G mutant.
Chain of Calcium/calmodulin-dependent protein kinase type II subunit alpha (Q9UQM7 whole entry F89G): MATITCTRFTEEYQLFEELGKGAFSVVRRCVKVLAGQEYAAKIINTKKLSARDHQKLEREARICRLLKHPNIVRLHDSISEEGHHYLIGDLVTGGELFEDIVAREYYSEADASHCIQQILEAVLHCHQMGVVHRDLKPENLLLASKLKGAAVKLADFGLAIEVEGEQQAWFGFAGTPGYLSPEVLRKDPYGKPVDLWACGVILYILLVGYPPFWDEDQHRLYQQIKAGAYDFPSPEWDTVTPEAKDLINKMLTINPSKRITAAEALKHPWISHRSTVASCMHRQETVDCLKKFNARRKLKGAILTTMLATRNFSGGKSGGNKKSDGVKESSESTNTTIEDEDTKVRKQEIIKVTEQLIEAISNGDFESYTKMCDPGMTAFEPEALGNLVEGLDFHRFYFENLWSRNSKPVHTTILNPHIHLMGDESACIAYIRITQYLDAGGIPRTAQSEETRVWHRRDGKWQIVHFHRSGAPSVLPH
Experiment [8] has as its target Tyrosine-protein kinase Fyn (Homo sapiens, UniProt P06241). Briefly: Inhibition of wild type c-Fyn.
Experiment [9] concerns the target Tyrosine-protein kinase ABL1 (Homo sapiens, UniProt P00519, T315A). The experiment is described as follows: Inhibition of c-Abl T315A mutant.
Experiment [10] deals with Tyrosine-protein kinase ABL1 (Homo sapiens, UniProt P00519). The experiment is described as follows: Inhibition of wild type c-Abl.
Chain of Tyrosine-protein kinase ABL1 (Homo sapiens, UniProt P00519) (P00519 whole entry): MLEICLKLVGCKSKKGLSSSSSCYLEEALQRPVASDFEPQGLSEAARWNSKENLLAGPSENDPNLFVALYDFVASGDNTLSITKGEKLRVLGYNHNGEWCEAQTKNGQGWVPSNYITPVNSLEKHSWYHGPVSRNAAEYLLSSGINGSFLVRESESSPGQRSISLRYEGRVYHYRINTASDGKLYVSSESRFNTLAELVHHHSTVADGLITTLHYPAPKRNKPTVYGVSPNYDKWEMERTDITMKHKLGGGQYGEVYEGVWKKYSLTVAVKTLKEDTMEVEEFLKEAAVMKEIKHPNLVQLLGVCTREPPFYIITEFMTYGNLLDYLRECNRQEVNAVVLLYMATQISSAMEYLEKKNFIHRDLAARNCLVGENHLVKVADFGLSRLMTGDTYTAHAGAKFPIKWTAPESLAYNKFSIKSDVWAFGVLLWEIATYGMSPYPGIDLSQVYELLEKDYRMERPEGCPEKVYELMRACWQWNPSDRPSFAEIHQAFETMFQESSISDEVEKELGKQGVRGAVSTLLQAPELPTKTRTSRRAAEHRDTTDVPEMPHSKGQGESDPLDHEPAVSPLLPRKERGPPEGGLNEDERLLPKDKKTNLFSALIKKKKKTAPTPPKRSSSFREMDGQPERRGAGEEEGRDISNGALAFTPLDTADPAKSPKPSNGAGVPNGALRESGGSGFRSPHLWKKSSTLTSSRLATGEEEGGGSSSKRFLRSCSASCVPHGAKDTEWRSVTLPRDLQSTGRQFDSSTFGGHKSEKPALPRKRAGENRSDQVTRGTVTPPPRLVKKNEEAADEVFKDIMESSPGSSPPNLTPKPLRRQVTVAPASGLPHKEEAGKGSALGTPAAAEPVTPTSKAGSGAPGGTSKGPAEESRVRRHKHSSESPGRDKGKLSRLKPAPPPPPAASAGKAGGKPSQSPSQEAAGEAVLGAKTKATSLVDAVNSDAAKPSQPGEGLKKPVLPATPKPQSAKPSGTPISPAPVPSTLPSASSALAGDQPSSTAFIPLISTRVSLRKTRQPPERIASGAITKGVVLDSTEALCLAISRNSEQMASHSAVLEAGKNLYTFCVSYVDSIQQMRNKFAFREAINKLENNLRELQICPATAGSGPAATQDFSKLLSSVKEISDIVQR

Chain of Tyrosine-protein kinase Fyn (P06241 whole entry): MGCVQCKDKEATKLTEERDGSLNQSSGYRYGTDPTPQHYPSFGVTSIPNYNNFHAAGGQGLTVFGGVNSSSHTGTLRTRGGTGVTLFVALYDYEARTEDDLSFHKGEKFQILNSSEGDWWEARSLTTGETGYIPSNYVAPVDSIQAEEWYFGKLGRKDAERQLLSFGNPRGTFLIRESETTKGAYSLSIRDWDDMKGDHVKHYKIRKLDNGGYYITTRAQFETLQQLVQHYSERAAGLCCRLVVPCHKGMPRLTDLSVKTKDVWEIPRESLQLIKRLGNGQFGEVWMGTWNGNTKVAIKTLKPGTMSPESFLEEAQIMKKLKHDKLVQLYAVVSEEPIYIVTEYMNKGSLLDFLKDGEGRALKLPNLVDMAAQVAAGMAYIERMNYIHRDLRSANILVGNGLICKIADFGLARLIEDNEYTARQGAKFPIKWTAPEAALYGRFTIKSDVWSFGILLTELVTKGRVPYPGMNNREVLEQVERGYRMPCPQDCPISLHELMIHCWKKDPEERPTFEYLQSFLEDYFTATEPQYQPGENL
Chain of Tyrosine-protein kinase ABL1 (Homo sapiens, UniProt P00519, T315A) (P00519 whole entry T315A): as the sequence (P00519 whole entry) above, with T315A counted along it

Take `CC(C)(C)n1nc(-c2cccc3ccccc23)c2c(N)ncnc21`: the IC50 – broadly, the midpoint of a concentration-inhibition curve – in experiment [1] is 15 nM; in experiment [2], 22000 nM; in [3], 1.5 nM; in experiment [4] it was 18000 nM; in [5] it was 1000 nM; in experiment [6] it was 6.5 nM. Further, the IC50 in experiment [7] was 97 nM.

Consider `CC(C)(C)n1nc(Cc2cccc3ccccc23)c2c(N)ncnc21`, for which the 50% inhibitory concentration (IC50) amounted to 1000 nM in [8]; 24000 nM in experiment [2]; 4.3 nM in experiment [3]; 29000 nM in experiment [4]; 28000 nM in experiment [5]; 3.2 nM in experiment [6]. The figures for the half-maximal inhibitory concentration (IC50) in experiment [9] and in experiment [10] were 120 nM and 3400 nM, respectively.
